PMC5218480 (PLoS ONE, 2017)

Test system: MV-4-11 cells
Assay: Gene expression microarray analysis (Affymetrix PrimeView) and GSEA
Format: cell-based, human
Design: RFU PODN (11730768_x_at) / Fold change /veh PODN (11730768_x_at) / RFU LINC00158 (11744669_a_at) / Fold change /veh LINC00158 (11744669_a_at) / RFU DUSP10 (11751237_a_at) / Fold change /veh DUSP10 (11751237_a_at) / RFU ID3 (11757404_x_at) / Fold change /veh ID3 (11757404_x_at) / RFU PLEKHG5 (11737974_s_at) / Fold change /veh PLEKHG5 (11737974_s_at) / RFU LRRC4B (11730491_at) / Fold change /veh LRRC4B (11730491_at) / RFU GIMAP4 (11747438_a_at) / Fold change /veh GIMAP4 (11747438_a_at) / RFU KRT8 (11758183_x_at) / Fold change /veh KRT8 (11758183_x_at) / RFU CNN1 (11734310_a_at) / Fold change /veh CNN1 (11734310_a_at) / RFU VPS37D (11726825_at) / Fold change /veh VPS37D (11726825_at) / RFU C10orf10 (11716522_x_at) / Fold change /veh C10orf10 (11716522_x_at) / RFU KIR2DL2 /// KIR2DL4 /// KIR2DL5A /// KIR2DL5B /// KIR2DS1 /// KIR2DS2 /// KIR2DS3 /// KIR2DS4 /// KIR3DL3 /// KIR3DL3 /// KIR3DS1 (11738374_at) / Fold change /veh KIR2DL2 /// KIR2DL4 /// KIR2DL5A /// KIR2DL5B /// KIR2DS1 /// KIR2DS2 /// KIR2DS3 /// KIR2DS4 /// KIR3DL3 /// KIR3DL3 /// KIR3DS1 (11738374_at) / RFU C1QL1 (11718748_at) / Fold change /veh C1QL1 (11718748_at) / RFU TMPRSS4 (11747572_a_at) / Fold change /veh TMPRSS4 (11747572_a_at) / RFU HAMP (11756126_x_at) / Fold change /veh HAMP (11756126_x_at) / RFU RNFT2 (11725882_a_at) / Fold change /veh RNFT2 (11725882_a_at) / RFU NR4A2 (11747474_a_at) / Fold change /veh NR4A2 (11747474_a_at) / RFU ABCC12 (11746883_a_at) / Fold change /veh ABCC12 (11746883_a_at) / RFU TMEM136 (11760407_x_at) / Fold change /veh TMEM136 (11760407_x_at) / RFU CLDN22 /// WWC2 (11732394_at) / Fold change /veh CLDN22 /// WWC2 (11732394_at) / RFU HLA-DPB1 (11760878_x_at) / Fold change /veh HLA-DPB1 (11760878_x_at) / RFU SPINT1 (11716480_a_at) / Fold change /veh SPINT1 (11716480_a_at) / RFU GAP43 (11754022_s_at) / Fold change /veh GAP43 (11754022_s_at) / RFU A4GNT (11735810_at) / Fold change /veh A4GNT (11735810_at) / RFU PRB3 (11715151_x_at) / Fold change /veh PRB3 (11715151_x_at) / RFU TUBB4B (11761932_at) / Fold change /veh TUBB4B (11761932_at) / RFU CAPN14 (11732068_a_at) / Fold change /veh CAPN14 (11732068_a_at) / RFU TMCC2 (11721928_a_at) / Fold change /veh TMCC2 (11721928_a_at) / RFU IRGQ (11745062_a_at) / Fold change /veh IRGQ (11745062_a_at) / RFU FAM174B (11720279_a_at) / Fold change /veh FAM174B (11720279_a_at) / RFU TMPRSS4 (11748680_a_at) / Fold change /veh TMPRSS4 (11748680_a_at) / RFU FAM212B (11763350_a_at) / Fold change /veh FAM212B (11763350_a_at) / RFU PLEKHG5 (11743358_a_at) / Fold change /veh PLEKHG5 (11743358_a_at) / RFU ZSCAN30 (11745921_a_at) / Fold change /veh ZSCAN30 (11745921_a_at) / RFU CMKLR1 (11741424_a_at) / Fold change /veh CMKLR1 (11741424_a_at) / RFU LOC101060620 /// MAPK8IP1 (11723275_at) / Fold change /veh LOC101060620 /// MAPK8IP1 (11723275_at) / RFU SPTSSB (11747773_x_at) / Fold change /veh SPTSSB (11747773_x_at) / RFU PRSS12 (11739890_at) / Fold change /veh PRSS12 (11739890_at) / RFU BIN1 (11741810_x_at) / Fold change /veh BIN1 (11741810_x_at) / RFU WNT11 (11732464_a_at) / Fold change /veh WNT11 (11732464_a_at) / RFU C10orf10 (11716521_a_at) / Fold change /veh C10orf10 (11716521_a_at) / RFU C5orf56 (11738089_at) / Fold change /veh C5orf56 (11738089_at) / RFU CYB561 (11721691_x_at) / Fold change /veh CYB561 (11721691_x_at) / RFU ANKRD19P (11752326_a_at) / Fold change /veh ANKRD19P (11752326_a_at) / RFU OR2T12 /// OR2T33 /// OR2T8 (11738714_s_at) / Fold change /veh OR2T12 /// OR2T33 /// OR2T8 (11738714_s_at) / RFU VCAN (11748164_a_at) / Fold change /veh VCAN (11748164_a_at) / RFU JSRP1 (11732532_at) / Fold change /veh JSRP1 (11732532_at) / RFU KRTAP10-11 (11738290_x_at) / Fold change /veh KRTAP10-11 (11738290_x_at) / RFU MYO3A (11730013_a_at) / Fold change /veh MYO3A (11730013_a_at) / RFU EBF3 (11725865_a_at) / Fold change /veh EBF3 (11725865_a_at) / RFU CAMK2N1 (11719241_x_at) / Fold change /veh CAMK2N1 (11719241_x_at) / RFU C5orf56 (11738088_a_at) / Fold change /veh C5orf56 (11738088_a_at) / RFU OLFML3 (11715873_a_at) / Fold change /veh OLFML3 (11715873_a_at) / RFU LOC100653217 /// NTM (11731650_a_at) / Fold change /veh LOC100653217 /// NTM (11731650_a_at) / RFU MAPK11 (11762145_a_at) / Fold change /veh MAPK11 (11762145_a_at) / RFU FIZ1 (11724087_x_at) / Fold change /veh FIZ1 (11724087_x_at) / RFU OASL (11726364_x_at) / Fold change /veh OASL (11726364_x_at) / RFU SOX15 (11748057_x_at) / Fold change /veh SOX15 (11748057_x_at) / RFU CD79A (11719716_a_at) / Fold change /veh CD79A (11719716_a_at) / RFU HIST1H1D (11736915_at) / Fold change /veh HIST1H1D (11736915_at) / RFU CASKIN2 (11723855_a_at) / Fold change /veh CASKIN2 (11723855_a_at) / RFU LOC730098 (11760151_x_at) / Fold change /veh LOC730098 (11760151_x_at) / RFU OR4N2 (11742367_at) / Fold change /veh OR4N2 (11742367_at) / RFU PRRT2 (11749266_a_at) / Fold change /veh PRRT2 (11749266_a_at) / RFU SNX32 (11753110_a_at) / Fold change /veh SNX32 (11753110_a_at) / RFU CDHR5 (11726645_a_at) / Fold change /veh CDHR5 (11726645_a_at) / RFU RCAN1 (11760418_a_at) / Fold change /veh RCAN1 (11760418_a_at) / RFU FAM167A (11723789_a_at) / Fold change /veh FAM167A (11723789_a_at) / RFU FAM26E (11764081_at) / Fold change /veh FAM26E (11764081_at) / RFU ISYNA1 (11749810_s_at) / Fold change /veh ISYNA1 (11749810_s_at) / RFU ACY1 (11761880_at) / Fold change /veh ACY1 (11761880_at) / RFU 11764098_at / Fold change /veh 11764098_at / RFU SAMD14 (11745864_x_at) / Fold change /veh SAMD14 (11745864_x_at) / RFU NPB (11741838_a_at) / Fold change /veh NPB (11741838_a_at) / RFU TMPRSS6 (11731388_a_at) / Fold change /veh TMPRSS6 (11731388_a_at) / RFU KRTAP10-2 (11738614_at) / Fold change /veh KRTAP10-2 (11738614_at) / RFU ARHGAP8 /// PRR5-ARHGAP8 (11727945_x_at) / Fold change /veh ARHGAP8 /// PRR5-ARHGAP8 (11727945_x_at) / RFU KRTAP5-7 /// NADSYN1 (11734609_at) / Fold change /veh KRTAP5-7 /// NADSYN1 (11734609_at) / RFU RASL12 (11751679_a_at) / Fold change /veh RASL12 (11751679_a_at) / RFU CDKN2B (11736163_a_at) / Fold change /veh CDKN2B (11736163_a_at) / RFU PRF1 (11729649_at) / Fold change /veh PRF1 (11729649_at) / RFU, ZNF638 /// ZNF638-IT1 / Fold change vs veh, ZNF638 /// ZNF638-IT1 / RFU, PANK3 / Fold change vs veh, PANK3 / RFU, SH3YL1 / Fold change vs veh, SH3YL1 / RFU, ZEB2 / Fold change vs veh, ZEB2 / RFU, NRIP1 / Fold change vs veh, NRIP1 / RFU, PTTG1IP / Fold change vs veh, PTTG1IP / RFU, CAPN2 / Fold change vs veh, CAPN2 / RFU, MED14 / Fold change vs veh, MED14 / RFU, SNORA58 / Fold change vs veh, SNORA58 / RFU, C1orf63 / Fold change vs veh, C1orf63 / RFU, LRRFIP1 / Fold change vs veh, LRRFIP1 / RFU, NDUFAF7 / Fold change vs veh, NDUFAF7 / RFU, SLC12A2 / Fold change vs veh, SLC12A2 / RFU, IBTK / Fold change vs veh, IBTK / RFU, ESF1 / Fold change vs veh, ESF1 / Fold change vs veh, TMEM50B / RFU, TAOK1 / Fold change vs veh, TAOK1 / RFU, ACBD3 / Fold change vs veh, ACBD3 / RFU, TMA16 / Fold change vs veh, TMA16 / RFU, RWDD3 / Fold change vs veh, RWDD3 / RFU, BCAT1 / Fold change vs veh, BCAT1 / RFU, EDEM3 / Fold change vs veh, EDEM3 / RFU, TMEM33 / Fold change vs veh, TMEM33 / RFU, WDR75 / Fold change vs veh, WDR75 / RFU, AHCTF1 / Fold change vs veh, AHCTF1 / RFU, TFRC / Fold change vs veh, TFRC / RFU, ZDHHC17 / Fold change vs veh, ZDHHC17 / RFU, NOM1 / Fold change vs veh, NOM1 / RFU, ARL8B / Fold change vs veh, ARL8B / RFU, ZBTB11 / Fold change vs veh, ZBTB11 / RFU, TAMM41 / Fold change vs veh, TAMM41 / RFU, KIAA1704 /// LOC100996395 / Fold change vs veh, KIAA1704 /// LOC100996395 / RFU, ING1 / Fold change vs veh, ING1 / RFU, TRMT61B / Fold change vs veh, TRMT61B / RFU, FUBP3 / Fold change vs veh, FUBP3 / RFU, TP53 / Fold change vs veh, TP53 / RFU, TNKS2 / Fold change vs veh, TNKS2 / RFU, ZFP14 / Fold change vs veh, ZFP14 / RFU, ACTR2 / Fold change vs veh, ACTR2 / RFU, PPP3R1 / Fold change vs veh, PPP3R1 / RFU, PIK3R1 / Fold change vs veh, PIK3R1 / RFU, HNRNPA1 / Fold change vs veh, HNRNPA1 / RFU, RNF170 / Fold change vs veh, RNF170 / RFU, ZNF28 / Fold change vs veh, ZNF28 / RFU, RNGTT / Fold change vs veh, RNGTT / RFU, OGT / Fold change vs veh, OGT / RFU, BRD1 / Fold change vs veh, BRD1 / RFU, MARS / Fold change vs veh, MARS / RFU, ZNF655 / Fold change vs veh, ZNF655 / RFU, FAHD1 / Fold change vs veh, FAHD1 / RFU, BDP1 / Fold change vs veh, BDP1 / RFU, LRRCC1 / Fold change vs veh, LRRCC1 / RFU, ARID1A / Fold change vs veh, ARID1A / RFU, ZNF146 / Fold change vs veh, ZNF146 / RFU, ZNF330 / Fold change vs veh, ZNF330 / RFU, GPN3 / Fold change vs veh, GPN3 / RFU, C9orf123 / Fold change vs veh, C9orf123 / RFU, N4BP2L2 / Fold change vs veh, N4BP2L2 / RFU, ARFIP1 / Fold change vs veh, ARFIP1 / RFU, FAM179B / Fold change vs veh, FAM179B / RFU, BCL10 / Fold change vs veh, BCL10 / RFU, UHRF1BP1L / Fold change vs veh, UHRF1BP1L / RFU, BET1 / Fold change vs veh, BET1 / RFU, CNOT2 / Fold change vs veh, CNOT2 / RFU, ZNF268 / Fold change vs veh, ZNF268 / Fold change vs veh, ZNF507 / RFU, DGCR2 / Fold change vs veh, DGCR2 / RFU, WDSUB1 / Fold change vs veh, WDSUB1 / Fold change vs veh, HSP90B1 /// MIR3652 / RFU, ADSS / Fold change vs veh, ADSS / RFU, GK / Fold change vs veh, GK / RFU, ZNF148 / Fold change vs veh, ZNF148 / RFU, TAF9 / Fold change vs veh, TAF9 / RFU, SLC1A5 / Fold change vs veh, SLC1A5 / RFU, SLMO2 / Fold change vs veh, SLMO2 / RFU, ABCC4 / Fold change vs veh, ABCC4 / RFU, LOC101060439 /// RAP1B / Fold change vs veh, LOC101060439 /// RAP1B / RFU, RFX7 / Fold change vs veh, RFX7 / RFU, GTPBP10 / Fold change vs veh, GTPBP10 / RFU, CNEP1R1 / Fold change vs veh, CNEP1R1 / RFU, BIVM-ERCC5 /// ERCC5 / Fold change vs veh, BIVM-ERCC5 /// ERCC5 / RFU, ILF3 / Fold change vs veh, ILF3 / RFU 11762660_at / Fold change /veh 11762660_at / RFU VCAN (11757783_s_at) / Fold change /veh VCAN (11757783_s_at) / RFU DDX43 (11728927_at) / Fold change /veh DDX43 (11728927_at) / RFU KRT8 (11758188_x_at) / Fold change /veh KRT8 (11758188_x_at) / RFU NKD1 (11759106_at) / Fold change /veh NKD1 (11759106_at) / RFU SRD5A1 (11742802_a_at) / Fold change /veh SRD5A1 (11742802_a_at) / RFU TPSAB1 /// TPSB2 (11721975_s_at) / Fold change /veh TPSAB1 /// TPSB2 (11721975_s_at) / RFU GSTM3 (11746129_a_at) / Fold change /veh GSTM3 (11746129_a_at) / RFU IL23R (11737362_x_at) / Fold change /veh IL23R (11737362_x_at) / RFU TMEM51 (11727254_a_at) / Fold change /veh TMEM51 (11727254_a_at) / RFU PIWIL2 (11732686_x_at) / Fold change /veh PIWIL2 (11732686_x_at) / RFU ORM1 (11744905_x_at) / Fold change /veh ORM1 (11744905_x_at) / RFU CCDC152 (11743942_at) / Fold change /veh CCDC152 (11743942_at) / RFU ECM1 (11717891_a_at) / Fold change /veh ECM1 (11717891_a_at) / RFU IL23R (11748794_a_at) / Fold change /veh IL23R (11748794_a_at) / RFU TNFAIP8L3 (11732012_x_at) / Fold change /veh TNFAIP8L3 (11732012_x_at) / RFU MBOAT4 (11741988_at) / Fold change /veh MBOAT4 (11741988_at) / RFU 11764193_at / Fold change /veh 11764193_at / RFU TMEM53 (11763286_at) / Fold change /veh TMEM53 (11763286_at) / RFU MAGEB2 (11727129_at) / Fold change /veh MAGEB2 (11727129_at) / RFU TMEM200A (11744735_a_at) / Fold change /veh TMEM200A (11744735_a_at) / RFU CCDC152 (11751479_a_at) / Fold change /veh CCDC152 (11751479_a_at) / RFU FAM211A (11726209_a_at) / Fold change /veh FAM211A (11726209_a_at) / RFU RGS16 (11746705_a_at) / Fold change /veh RGS16 (11746705_a_at) / RFU VCAN (11755009_s_at) / Fold change /veh VCAN (11755009_s_at) / RFU RHOB (11743442_s_at) / Fold change /veh RHOB (11743442_s_at) / RFU RGS16 (11720943_a_at) / Fold change /veh RGS16 (11720943_a_at) / RFU RGS16 (11720944_at) / Fold change /veh RGS16 (11720944_at) / RFU, VPS4B / Fold change vs veh, VPS4B / RFU, CREB1 / Fold change vs veh, CREB1 / RFU, DNAJC13 / Fold change vs veh, DNAJC13 / RFU, GNAQ / Fold change vs veh, GNAQ / RFU, CDK5R1 / Fold change vs veh, CDK5R1 / RFU, ZRANB3 / Fold change vs veh, ZRANB3 / RFU, CUL4A / Fold change vs veh, CUL4A / RFU, CCNY / Fold change vs veh, CCNY / RFU, UFL1 / Fold change vs veh, UFL1 / RFU, COG3 / Fold change vs veh, COG3 / RFU, DIAPH2 / Fold change vs veh, DIAPH2 / RFU, SKA2 / Fold change vs veh, SKA2 / RFU, AFF3 / Fold change vs veh, AFF3 / RFU, LMF1 / Fold change vs veh, LMF1 / RFU, IPO11 / Fold change vs veh, IPO11 / RFU, DFFB / Fold change vs veh, DFFB / RFU, FOXP1 / Fold change vs veh, FOXP1 / RFU, CARD8 / Fold change vs veh, CARD8 / RFU, STRN3 / Fold change vs veh, STRN3 / RFU, ADK / Fold change vs veh, ADK / RFU, RASSF2 / Fold change vs veh, RASSF2 / RFU, WIPF1 / Fold change vs veh, WIPF1 / RFU, LARP1B / Fold change vs veh, LARP1B / RFU, RASA1 / Fold change vs veh, RASA1 / RFU, RB1 / Fold change vs veh, RB1 / RFU, PPFIA1 / Fold change vs veh, PPFIA1 / RFU, MAT2A / Fold change vs veh, MAT2A / RFU, CCT5 / Fold change vs veh, CCT5 / RFU, WDR92 / Fold change vs veh, WDR92 / RFU, CUX1 / Fold change vs veh, CUX1 / RFU, TTC7A / Fold change vs veh, TTC7A / RFU, TMEM135 / Fold change vs veh, TMEM135 / RFU, DEPTOR / Fold change vs veh, DEPTOR / RFU, CPM / Fold change vs veh, CPM / RFU, DNAJB6 / Fold change vs veh, DNAJB6 / RFU, CACNA2D3 / Fold change vs veh, CACNA2D3 / RFU, DTX4 / Fold change vs veh, DTX4 / RFU, TFCP2 / Fold change vs veh, TFCP2 / RFU, GMCL1 /// GMCL1P1 / Fold change vs veh, GMCL1 /// GMCL1P1 / RFU, AEBP2 / Fold change vs veh, AEBP2 / RFU, SNHG1 /// SNORD22 /// SNORD25 /// SNORD26 /// SNORD27 /// SNORD28 /// SNORD29 /// SNORD31 / Fold change vs veh, SNHG1 /// SNORD22 /// SNORD25 /// SNORD26 /// SNORD27 /// SNORD28 /// SNORD29 /// SNORD31 / Fold change (Aza/veh), C12orf56 (ProbeSet 11735607_a_at) / Fold change (ACY-1035/veh), C12orf56 (ProbeSet 11735607_a_at) / Fold change (Aza/veh), FGFR1OP (ProbeSet 11751329_s_at) / Fold change (ACY-1035/veh), FGFR1OP (ProbeSet 11751329_s_at) / Fold change (Aza/veh), VPS36 (ProbeSet 11739960_a_at) / Fold change (ACY-1035/veh), VPS36 (ProbeSet 11739960_a_at) / RFU SYPL1 (11715823_x_at) / Fold change /veh SYPL1 (11715823_x_at) / RFU IGFBP7 (11715501_s_at) / Fold change /veh IGFBP7 (11715501_s_at) / RFU REEP3 (11722064_at) / Fold change /veh REEP3 (11722064_at) / RFU IGLL1 (11728026_x_at) / Fold change /veh IGLL1 (11728026_x_at): dose or concentration left out as unconfirmed
Conditions: ProbeSet 11740011_at; LIST B

Nc1ncn([C@@H]2O[C@H](CO)[C@@H](O)[C@H]2O)c(=O)n1 [azacitidine]
Fold change vs veh, ZFP14: 0.92
